The compounds below were run against cholesterol biosynthesis (crude enzyme extracted from rat liver) (assay: inhibition of cholesterol biosynthesis by crude enzyme extracted from rat liver (radioactive acetic acid, 37° C., 60 minutes; cholesterol precipitated with digitonin, radioactivity measured)).
Type: biochemical
Method: Crude enzyme extracted from rat liver was reacted with radioactive acetic acid at 37° C. for 60 minutes. The radioactive cholesterol thus biosynthesized was saponified and precipitated with digitonin, and the radioactivity was measured to determine the amount of cholesterol produced. The reaction was repeated, by adding one of the compounds of the invention listed in the following Table at the beginning of the reaction, and the amount of cholesterol biosynthesized was again determined, to give a quantitative measurement of the inhibitory effect of the compounds of the invention. The concentrations (μg/ml) of the compounds of the invention and of a known compound (clofibrate) which gave approximately 50% inhibition of cholesterol biosynthesis re reported in the following Table as I50 values [see Bricker et al, The Journal of Biological Chemistry, 247, 4914 (1972)]. The compounds of the invention are identified in the following Table by the numbers heretofore assigned to them.
In the case of `CCOC(=O)C(C)(C)Oc1ccc(Cl)cc1` [Clofibrate, clofibrate, reference compound], the “I50 (concentration which gave approximately 50% inhibition of cholesterol biosynthesis)” value is reported as 250 to 300 µg/mL. With `CCOC(=O)CC(O)CC(O)CCc1ccccc1` (centres unmarked) [Compound 1, Ethyl 3,5-dihydroxy-7-phenylheptanoate] the “I50 (concentration which gave approximately 50% inhibition of cholesterol biosynthesis)” value was 3.7 µg/mL. For `CCOC(=O)CC(O)CC(O)CCc1ccc(Cl)cc1` (centres unmarked) [Compound 2, Ethyl 7-p-chlorophenyl-3,5-dihydroxyheptanoate], the “I50 (concentration which gave approximately 50% inhibition of cholesterol biosynthesis)” value was 17.2 µg/mL. With `CCOC(=O)CC(O)CC(O)CCc1cccc2ccccc12` (centres unmarked) [Compound 3, Ethyl 3,5-dihydroxy-7-(1-naphthyl)heptanoate] the “I50 (concentration which gave approximately 50% inhibition of cholesterol biosynthesis)” value was 5.0 µg/mL. `CCOC(=O)CC(O)CC(O)CCc1c(C)ccc2ccccc12` (centres unmarked) [Compound 4, Ethyl 3,5-dihydroxy-7-(2-methyl-1-naphthyl)heptanoate] was tested, and the “I50 (concentration which gave approximately 50% inhibition of cholesterol biosynthesis)” value was 0.24 µg/mL. With `CCOC(=O)CC(O)CC(O)CCc1c(C)ccc2c1CCCC2` (centres unmarked) [Compound 5, Ethyl 3,5-dihydroxy-7-(2-methyl-5,6,7,8-tetrahydro-1-naphthyl)heptanoate] the “I50 (concentration which gave approximately 50% inhibition of cholesterol biosynthesis)” value was 1.56 µg/mL. With `CCOC(=O)CC(O)CC(O)CCCc1cccc2ccccc12` (centres unmarked) [Compound 6, Ethyl 3,5-dihydroxy-8-(1-naphthyl)octanoate] the “I50 (concentration which gave approximately 50% inhibition of cholesterol biosynthesis)” value was 3.4 µg/mL. For `CCOC(=O)CC(O)CC(O)CCCc1c(C)ccc2ccccc12` (centres unmarked) [Compound 7, Ethyl 3,5-dihydroxy-8-(2-methyl-1-naphthyl)octanoate], the “I50 (concentration which gave approximately 50% inhibition of cholesterol biosynthesis)” value was 1.2 µg/mL. `CCOC(=O)CC(O)CC(O)C=Cc1ccccc1` (centres unmarked) [Compound 8, Ethyl 3,5-dihydroxy-7-phenylhept-6-enoate] was tested, and the “I50 (concentration which gave approximately 50% inhibition of cholesterol biosynthesis)” value was 9.0 µg/mL. With `CCOC(=O)CC(O)CC(O)C(C)Oc1ccccc1` (centres unmarked) [Compound 9, Ethyl 3,5-dihydroxy-6-phenoxyheptanoate] the “I50 (concentration which gave approximately 50% inhibition of cholesterol biosynthesis)” value was 23 to 50 µg/mL. For `CCOC(=O)CC(O)CC(O)COc1ccccc1Cl` (centres unmarked) [Compound 10, Ethyl 6-(o-chlorophenoxy)-3,5-dihydroxyhexanoate], the “I50 (concentration which gave approximately 50% inhibition of cholesterol biosynthesis)” value was 5 to 15.2 µg/mL.

— patent US4248889A, “3,5-Dihydroxypentanoic ester derivatives having antihyperlipaemic activity” (Sankyo Company Limited, priority 1978, dated 1981)
